Measurements: patent US10323022B2, “Pyrrolidinyl urea, pyrrolidinyl thiourea and pyrrolidinyl guanidine compounds as TrkA kinase inhibitors” (Array BioPharma Inc., priority 2011, dated 2019)
Where a name gives a salt, the structure may show the parent alone.

Molecular target: TrkA (Homo sapiens (Human), UniProt P04629)
Experiment: TrkA Omnia Assay
Type: biochemical
Conditions: averaged IC50; 20 nM enzyme, 500 μM ATP, 10 μM peptide substrate
Summary of the method: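 Continuous fluorescent kinase read-out (ex 360 nm, em 485 nm) over 70 min, with initial rates fitted to 4- or 5-parameter logistic curves for IC50. Final conditions: 500 μM ATP, 10 μM Omnia Tyr Peptide #4, 20 nM TrkA, MOPS pH 7.5 buffer with MgCl2 and Triton X-100; enzyme and compound preincubated 10 min at ambient temperature.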

Sequence of TrkA (P04629 33-796): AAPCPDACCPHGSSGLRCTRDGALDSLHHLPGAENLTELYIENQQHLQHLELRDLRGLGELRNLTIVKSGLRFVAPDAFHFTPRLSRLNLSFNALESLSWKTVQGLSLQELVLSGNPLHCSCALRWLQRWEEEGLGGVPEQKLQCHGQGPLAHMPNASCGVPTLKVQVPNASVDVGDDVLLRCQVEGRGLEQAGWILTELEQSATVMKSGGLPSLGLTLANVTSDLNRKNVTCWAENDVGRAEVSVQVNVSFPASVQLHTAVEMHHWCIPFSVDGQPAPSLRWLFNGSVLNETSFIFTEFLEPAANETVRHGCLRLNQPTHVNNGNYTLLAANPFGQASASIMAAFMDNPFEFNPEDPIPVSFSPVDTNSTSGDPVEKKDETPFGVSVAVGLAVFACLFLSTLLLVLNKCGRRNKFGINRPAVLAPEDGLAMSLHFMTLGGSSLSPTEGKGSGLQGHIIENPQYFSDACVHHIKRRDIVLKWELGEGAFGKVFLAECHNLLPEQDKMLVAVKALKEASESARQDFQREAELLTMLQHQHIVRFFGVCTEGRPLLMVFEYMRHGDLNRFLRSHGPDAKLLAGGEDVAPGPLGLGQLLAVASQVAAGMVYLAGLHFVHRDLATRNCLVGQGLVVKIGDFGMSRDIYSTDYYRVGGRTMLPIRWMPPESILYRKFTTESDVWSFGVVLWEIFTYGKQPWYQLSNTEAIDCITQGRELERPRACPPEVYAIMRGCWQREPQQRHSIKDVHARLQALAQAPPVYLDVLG

Row | Structure (SMILES) | IC50 [nM]
1 | COCCN1C[C@@H](NC(=O)Nc2c(Br)c([C@H]3CCCN3)nn2-c2ccccc2)[C@H](c2ccc(F)c(F)c2)C1 [Example 588, 1-(4-bromo-1-phenyl-3-((R)-pyrrolidin-2-yl)-1H-pyrazol-5-yl)-3-((3S,4R)-4-(3,4-difluorophenyl)-1-(2-methoxyethyl)pyrrolidin-3-yl)urea dihydrochloride] | < 100
2 | COCCN1C[C@@H](NC(=O)Nc2cc(COC3CCNCC3)nn2-c2ccccc2)[C@H](c2ccc(F)c(F)c2)C1 [Example 589, 1-((3S,4R)-4-(3,4-difluorophenyl)-1-(2-methoxyethyl)pyrrolidin-3-yl)-3-(1-phenyl-3-((piperidin-4-yloxy)methyl)-1H-pyrazol-5-yl)urea dihydrochloride] | 100 to 1000
3 | COCCN1C[C@@H](NC(=O)Nc2c(Cl)c(COC3CCNCC3)nn2-c2ccccc2)[C@H](c2ccc(F)c(F)c2)C1 [Example 590, 1-(4-chloro-1-phenyl-3-((piperidin-4-yloxy)methyl)-1H-pyrazol-5-yl)-3-((3S,4R)-4-(3,4-difluorophenyl)-1-(2-methoxyethyl)pyrrolidin-3-yl)urea dihydrochloride] | < 100
4 | COCCN1C[C@@H](NC(=O)Nc2c(Br)c(COC3CCNCC3)nn2-c2ccccc2)[C@H](c2ccc(F)c(F)c2)C1 [Example 591, 1-(4-bromo-1-phenyl-3-((piperidin-4-yloxy)methyl)-1H-pyrazol-5-yl)-3-((3S,4R)-4-(3,4-difluorophenyl)-1-(2-methoxyethyl)pyrrolidin-3-yl)urea dihydrochloride] | < 100
5 | COCCN1C[C@@H](NC(=O)Nc2c(Br)c(C3CCN(S(C)(=O)=O)CC3)nn2-c2ccccc2)[C@H](c2ccc(F)c(F)c2)C1 [Example 592, 1-(4-bromo-3-(1-(methylsulfonyl)piperidin-4-yl)-1-phenyl-1H-pyrazol-5-yl)-3-((3S,4R)-4-(3,4-difluorophenyl)-1-(2-methoxyethyl)pyrrolidin-3-yl)urea] | < 100
6 | COCCN1C[C@@H](NC(=O)Nc2c(Br)c(C3CCN(C(C)=O)CC3)nn2-c2ccccc2)[C@H](c2ccc(F)c(F)c2)C1 [Example 593, 1-(3-(1-acetylpiperidin-4-yl)-4-bromo-1-phenyl-1H-pyrazol-5-yl)-3-((3S,4R)-4-(3,4-difluorophenyl)-1-(2-methoxyethyl)pyrrolidin-3-yl)urea] | < 100
7 | COCCN1C[C@@H](NC(=O)Nc2c(Cl)c(C3CCN(S(=O)(=O)C(F)(F)F)CC3)nn2-c2ccccc2)[C@H](c2ccc(F)c(F)c2)C1 [Example 594, 1-(4-chloro-1-phenyl-3-(1-(trifluoromethylsulfonyl)piperidin-4-yl)-1H-pyrazol-5-yl)-3-((3S,4R)-4-(3,4-difluorophenyl)-1-(2-methoxyethyl)pyrrolidin-3-yl)urea hydrochloride] | < 100
8 | COCCN1C[C@@H](NC(=O)Nc2c(C)c([C@H]3CCCN3S(C)(=O)=O)nn2-c2ccccc2)[C@H](c2ccc(F)c(F)c2)C1 [Example 595, 1-((3S,4R)-4-(3,4-difluorophenyl)-1-(2-methoxyethyl)pyrrolidin-3-yl)-3-(4-methyl-3-((R)-1-(methylsulfonyl)pyrrolidin-2-yl)-1-phenyl-1H-pyrazol-5-yl)urea] | < 100
9 | COCCN1C[C@@H](NC(=O)Nc2c(C)c([C@H]3CCCN3C(C)=O)nn2-c2ccccc2)[C@H](c2ccc(F)c(F)c2)C1 [Example 596, 1-(3-((R)-1-acetylpyrrolidin-2-yl)-4-methyl-1-phenyl-1H-pyrazol-5-yl)-3-((3S,4R)-4-(3,4-difluorophenyl)-1-(2-methoxyethyl)pyrrolidin-3-yl)urea] | < 100
10 | COCCN1C[C@@H](NC(=O)Nc2c(C)c([C@H]3CCCN3C)nn2-c2ccccc2)[C@H](c2ccc(F)c(F)c2)C1 [Example 597, 1-((3S,4R)-4-(3,4-difluorophenyl)-1-(2-methoxyethyl)pyrrolidin-3-yl)-3-(4-methyl-3-((R)-1-methylpyrrolidin-2-yl)-1-phenyl-1H-pyrazol-5-yl)urea dihydrochloride] | < 100
11 | COCCN1C[C@@H](NC(=O)Nc2c(C)c([C@@H]3CCCN3C)nn2-c2ccccc2)[C@H](c2cc(F)cc(F)c2)C1 [Example 598, 1-((3S,4R)-4-(3,5-difluorophenyl)-1-(2-methoxyethyl)pyrrolidin-3-yl)-3-(4-methyl-3-((S)-1-methylpyrrolidin-2-yl)-1-phenyl-1H-pyrazol-5-yl)urea dihydrochloride] | < 100
12 | COCCN1C[C@@H](NC(=O)Nc2c(Br)c(COC3CCN(S(C)(=O)=O)CC3)nn2-c2ccccc2)[C@H](c2ccc(F)c(F)c2)C1 [Example 599, 1-(4-bromo-3-((1-(methylsulfonyl)piperidin-4-yloxy)methyl)-1-phenyl-1H-pyrazol-5-yl)-3-((3S,4R)-4-(3,4-difluorophenyl)-1-(2-methoxyethyl)pyrrolidin-3-yl)urea] | < 100
13 | COCCN1C[C@@H](NC(=O)Nc2c(Br)c(COC3CCN(C(C)=O)CC3)nn2-c2ccccc2)[C@H](c2ccc(F)c(F)c2)C1 [Example 600, 1-(3-((1-acetylpiperidin-4-yloxy)methyl)-4-bromo-1-phenyl-1H-pyrazol-5-yl)-3-((3S,4R)-4-(3,4-difluorophenyl)-1-(2-methoxyethyl)pyrrolidin-3-yl)urea] | < 100
14 | COCCN1C[C@@H](NC(=O)Nc2c(C)c(-c3nn(C(C)C)c(=O)o3)nn2-c2ccccc2)[C@H](c2ccc(F)c(F)c2)C1 [Example 601, 1-((3S,4R)-4-(3,4-difluorophenyvl)-1-(2-methoxyethyl)pyrrolidin-3-yl)-3-(3-(4-isopropyl-5-oxo-4,5-dihydro-1,3,4-oxadiazol-2-yl)-4-methyl-1-phenyl-1H-pyrazol-5-yl)urea] | < 100
15 | COCCN1C[C@@H](NC(=O)Nc2c(C)c(-c3nn(C)c(=O)o3)nn2-c2ccccc2)[C@H](c2ccc(F)c(F)c2)C1 [Example 602, 1-((3S,4R)-4-(3,4-difluorophenyl)-1-(2-methoxyethyl)pyrrolidin-3-yl)-3-(4-methyl-3-(4-methyl-5-oxo-4,5-dihydro-1,3,4-oxadiazol-2-yl)-1-phenyl-1H-pyrazol-5-yl)urea] | < 100
16 | COCCN1C[C@@H](NC(=O)Nc2c(C)c(Oc3cnccn3)nn2-c2ccccc2)[C@H](c2ccc(F)cc2)C1 [Example 603, 1-((3S,4R)-4-(4-fluorophenyl)-1-(2-methoxyethyl)pyrrolidin-3-yl)-3-(4-methyl-1-phenyl-3-(pyrazin-2-yloxy)-1H-pyrazol-5-yl)urea] | < 100
17 | COCCN1C[C@@H](NC(=O)Nc2c(C)c(-c3ccc(=O)n(C)c3)nn2-c2ccccc2)[C@H](c2cc(F)c(F)c(F)c2)C1 [Example 604, 1-((3S,4R)-1-(2-methoxyethyl)-4-(3,4,5-trifluorophenyl)pyrrolidin-3-yl)-3-(4-methyl-3-(1-methyl-6-oxo-1,6-dihydropyridin-3-yl)-1-phenyl-1H-pyrazol-5-yl)urea] | < 100
18 | COCCN1C[C@@H](NC(=O)Nc2c(C(F)(F)F)c(OC)nn2-c2ccccc2)[C@H](c2ccc(F)c(F)c2)C1 [Example 605, 1-((3S,4R)-4-(3,4-difluorophenyl)-1-(2-methoxyethyl)pyrrolidin-3-yl)-3-(3-methoxy-1-phenyl-4-(trifluoromethyl)-1H-pyrazol-5-yl)urea] | < 100
